Results: patent US9725477B2, “Platinum compounds of malonic acid derivative having leaving group containing amino or alkylamino” (BEIJING FSWELCOME TECHNOLOGY DEVELOPMENT CO., LTD, priority 2012, dated 2017)
pIC50: −log10 of the molar value. Like-named read-outs stand apart in the source and are kept apart here.

How the values were obtained:
normal mice = experiment: in vivo; details: method of test example 1; for LD50: Table 1, formula I compounds; for LD50 vALUE: Table 2, formula II compounds
Method: Kunming mice with 4˜6 weeks old and 18 g˜22 g by weight were taken, 50% males and 50% females. […] The condition of mortality and toxicity were observed after administration. Totally observing for 14 days, LD50 value was calculated using Bliss method according to the mortality.

Lung cancer A549 = experiment: MTT cytotoxicity, lung cancer A549; details: read-out: IC50 of anti-lung cancer A549, method of test example 2
Method: Cell morphologies were observed after being cultivated for 24 hours.

gastric cancer MGC803 = experiment: MTT cytotoxicity, gastric cancer MGC803; format: cell-based; details: n = 6
Solubility in water = details: compound of the example (salt form) in water
Lung cancer H292 = experiment: MTT cytotoxicity, lung cancer H292; format: cell-based; details: Lung cancer H292, MTT, n = 6; read-out: cytotoxicity IC50
Testis cell ST = experiment: MTT cytotoxicity, testis cell ST; format: cell-based; details: n = 6
colon cancer SW480 = experiment: MTT cytotoxicity, colon cancer SW480; format: cell-based; details: colon cancer SW480, MTT, n = 6; read-out: cytotoxicity IC50
Esophagus cancer ECA109 = experiment: MTT cytotoxicity, esophagus cancer ECA109; format: cell-based; details: n = 6

Compound | LD50 (normal mice) [mmol/kg] | pIC50 (Lung cancer A549; Table 1, formula I compounds) | other results
CC1CCN(CCCCC2C(=O)[O][Pt]3([NH]C4CC=CCC4[NH]3)[O]C2=O)C1 (stereo not drawn) [Compound 33] | 0.826 | 5.15 | 
O=C1[O][Pt]2([NH]C3CCCCC3[NH]2)[O]C(=O)C1CCCCN(C1CCCC1)C1CCCC1 (stereo not drawn) [Compound 42] | 0.826 | 5.30 | 
O=C1[O][Pt]([NH]C2CCCC2)([NH]C2CCCC2)[O]C(=O)C1CCCCN(C1CC1)C1CC1 [Compound 56] | 0.816 | 4.24 | 
CCN(CC)CCCCC1C(=O)[O][Pt]2([NH]CCCC[NH]2)[O]C1=O.O=P(O)(O)O [Compound 19, 2-(4-diethylaminobutyl)-malonate•cis-(1,4-butanediamine) platinum (II) phosphate] |  |  | pIC50 (gastric cancer MGC803): 5.30; solubility (Solubility in water): more than 300 mg/ml; pIC50 (Lung cancer H292): 5.22; pIC50 (Testis cell ST): 4.89; pIC50 (colon cancer SW480): 4.64
CCN(CC)CCCCC1C(=O)[O][Pt]2([NH]CC(CO)(CO)C[NH]2)[O]C1=O.O=P(O)(O)O [Compound 21, 2-(4-diethylaminobutyl)-malonate•cis-1,3-(2,2-hydroxymethyl)-propanediamine platinum (II) phosphate] |  |  | pIC50 (gastric cancer MGC803): 5.30; solubility (Solubility in water): more than 300 mg/ml; pIC50 (Lung cancer H292): 4.92; pIC50 (Testis cell ST): 4.89
CN(CO)CCCCC1C(=O)[O][Pt]([NH2])([NH]C2CCC2)[O]C1=O (stereo not drawn) [Compound 52] | 0.687 | 4.39 | 
COC1CC(C)N(CCCCC2C(=O)[O][Pt][O]C2=O)C1C.NC1CCCCC1N (stereo not drawn) [Compound 39] | 0.711 | 5.22 | 
CCN(C)CC(CCC1C(=O)[O][Pt][O]C1=O)OC.N.N (stereo not drawn) [Compound 30] | 0.759 | 4.92 | 
CCN(CC)CCCCC1C(=O)[O][Pt]2([NH]C3CCC3[NH]2)[O]C1=O.O=C(O)CCC(=O)O (racemic) [Compound 15, 2-(4-diethylaminobutyl)-malonate•cis-(1,2-trans-cyclobutanediamine) platinum (II) succinate] |  |  | pIC50 (gastric cancer MGC803): 5.52; pIC50 (Lung cancer H292): 5.00; pIC50 (colon cancer SW480): 4.74
CN(C)CCCCC1C(=O)[O][Pt][O]C1=O.NC1CCC(N)C1 [Compound 44] | 0.857 | 4.62 | 
C[N+](C)(C)CCCCC1C(=O)[O][Pt][O]C1=O.Cc1ccc(S(=O)(=O)[O-])cc1.N[C@@H]1CCCC[C@H]1N [Compound 29, 2-(4-trimethylaminobutyl)-malonate•cis-(1,2-trans-cyclohexanediamine) platinum(II) tosilate] |  |  | pIC50 (gastric cancer MGC803): 5.70; pIC50 (Lung cancer H292): 5.15; pIC50 (Testis cell ST): 5.10; pIC50 (Esophagus cancer ECA109): 4.60
CC1CC(C)[NH][Pt]2([NH]1)[O]C(=O)C(CCCCN(C)C)C(=O)[O]2 (stereo not drawn) [Compound 45] | 0.834 | 4.51 | 
CC1CCCN1CCCCC1C(=O)[O][Pt]2([NH]C3CCCCC3[NH]2)[O]C1=O (stereo not drawn) [Compound 38] | 0.818 | 5.22 | 
CCN(CC)CCCCC1C(=O)[O][Pt]2([NH]CC[NH]2)[O]C1=O.Cc1ccc(S(=O)(=O)O)cc1 [Compound 17, 2-(4-diethylaminobutyl)-malonate•cis-(1,2-ethylenediamine) platinum (II) tosilate] |  |  | pIC50 (gastric cancer MGC803): 5.30; solubility (Solubility in water): more than 300 mg/ml; pIC50 (Lung cancer H292): 5.40; pIC50 (Testis cell ST): 4.80; pIC50 (colon cancer SW480): 5.15
CCN(CC)CCCCC1C(=O)[O][Pt][O]C1=O.NC1CC(O)C(O)CC1N [Compound 40] | 0.683 | 4.68 | 
CCCCN(C)CCCCC1C(=O)[O][Pt]2([NH][C@H]3CCCC[C@H]3[NH]2)[O]C1=O (stereo partly drawn) [Compound 60] | 0.875 | 5.05 | 
CCN(CC)CCCCC1C(=O)[O][Pt]([NH]C2CCCC2)([NH]C2CCCC2)[O]C1=O [Compound 55] | 0.852 | 4.21 | 
O=C1[O][Pt]2([NH]C3CCCCC3[NH]2)[O]C(=O)C1CCCCN1CCOCC1 (stereo not drawn) [Compound 51] | 0.654 | 4.59 | 
CN(C)CCCCC1C(=O)[O][Pt][O]C1=O.NCC1CCN1 [Compound 47] | 0.815 | 4.64 | 
CN(CCCCC1C(=O)[O][Pt]2([NH]C3CCCCC3[NH]2)[O]C1=O)Cc1ccc(Cl)cc1 (stereo not drawn) [Compound 58] | 0.607 | 4.43 | 
CCN(C)CC(CCC1C(=O)[O][Pt][O]C1=O)OC.NC1CCCCC1N (stereo not drawn) [Compound 31] | 0.732 | 5.30 | 

Compound | LD50 (normal mice) [mmol/kg] | pIC50 (Lung cancer A549; Table 1, formula I compounds) | other results
CCCC[NH][Pt]1([NH]CCCC)[O]C(=O)C(CCCC[N+](CC)(CC)CC)C(=O)[O]1 [Compound 67] |  |  | LD50 vALUE (normal mice): 0.802 mmol/kg; pIC50 (Lung cancer A549; Table 2, formula II compounds): 4.57
2-(4-diethylaminobutyl)-malonate•cis-dicyclopentylamine platinum (II) acetate [Compound 25] |  |  | pIC50 (gastric cancer MGC803): 5.52; pIC50 (Lung cancer H292): 5.22; pIC50 (Testis cell ST): 5.15; pIC50 (Esophagus cancer ECA109): 4.54
CCN(C)CC(O)CCC1C(=O)[O][Pt][O]C1=O.NC1CCCCC1N (stereo not drawn) [Compound 54] | 0.792 |  | 
2-(4-diethylaminobutyl)-malonate•cis-ammonia•cyclopentylamine platinum (II) acetate [Compound 26] |  |  | pIC50 (gastric cancer MGC803): 6.00; pIC50 (Lung cancer H292): 5.40; pIC50 (Testis cell ST): 4.96; pIC50 (Esophagus cancer ECA109): 4.04
CN(C)CCCCC1C(=O)[O][Pt][O]C1=O.NCC1CCCCN1 [Compound 49] | 0.817 | 4.35 | 
CC1CCN(CCCCC2C(=O)[O][Pt]3([NH]C4CCCCC4[NH]3)[O]C2=O)CC1 (stereo not drawn) [Compound 37] | 0.825 | 5.05 | 
CCN(CC)CCCCC1C(=O)[O][Pt]2([NH]CCC[NH]2)[O]C1=O.O=P(O)(O)O [Compound 18, 2-(4-diethylaminobutyl)-malonate•cis-(1,3-propanediamine) platinum (II) phosphate] |  |  | pIC50 (gastric cancer MGC803): 5.70; solubility (Solubility in water): more than 300 mg/ml; pIC50 (Lung cancer H292): 5.10; pIC50 (Testis cell ST): 4.66; pIC50 (colon cancer SW480): 4.85
CN(CCCCC1C(=O)[O][Pt]([NH2])([NH2])[O]C1=O)Cc1ccc(Cl)cc1F [Compound 59] | 0.598 | 4.17 | 
CC1CC(Cl)C(C)N1CCCCC1C(=O)[O][Pt]2([NH]C3CCCCC3[NH]2)[O]C1=O (stereo not drawn) [Compound 41] | 0.675 | 4.89 | 
CN(C)CCCCC1C(=O)[O][Pt][O]C1=O.NCC1CN1 [Compound 46] | 0.823 | 4.57 | 
CN(CCCCC1C(=O)[O][Pt]2([NH]C3CCCCC3[NH]2)[O]C1=O)Cc1ccccc1 (stereo not drawn) [Compound 57] | 0.613 |  | 
NC1CCCCC1N.O=C1[O][Pt][O]C(=O)C1CCC(Cl)CN1CCCCC1 (stereo not drawn) [Compound 36] | 0.713 | 5.15 | 
CN(CCCCC1C(=O)[O][Pt]2([NH]C3CCCCC3[NH]2)[O]C1=O)C1CCCC1 (stereo not drawn) [Compound 43] | 0.841 | 5.30 | 
CCCC[N+](C)(C)CCCCC1C(=O)[O][Pt]2([NH][C@H]3CC(OC)C(OC)C[C@H]3[NH]2)[O]C1=O (stereo partly drawn) [Compound 65] |  |  | LD50 vALUE (normal mice): 0.615 mmol/kg; pIC50 (Lung cancer A549; Table 2, formula II compounds): 4.80
CCCN.CCN(CC)CCCCC1C(=O)[O][Pt][O]C1=O.NC1CC=NC1 [Compound 63] | 0.804 | 4.60 | 
CN(C)CCCCC1C(=O)[O][Pt][O]C1=O.NCC1CCCN1 [Compound 48] | 0.831 | 4.51 | 
CC[N+](CC)(CC)CCCCC1C(=O)[O][Pt]([NH2])([NH2])[O]C1=O [Compound 66] |  |  | LD50 vALUE (normal mice): 0.677 mmol/kg; pIC50 (Lung cancer A549; Table 2, formula II compounds): 4.70
2-(4-diethylaminobutyl)-malonate•cis-(1, 2-trans-cyclopropanediamine) platinum (II) phosphate [Compound 16] |  |  | pIC50 (gastric cancer MGC803): 5.40; pIC50 (Lung cancer H292): 5.30; pIC50 (Testis cell ST): 5.00; pIC50 (colon cancer SW480): 4.89
O=C1[O][Pt]2([NH]C3CCCCC3[NH]2)[O]C(=O)C1CCCCN1CC=CC1 (stereo not drawn) [Compound 35] | 0.762 | 5.40 | 
CN(CCCCC1C(=O)[O][Pt]2([NH]C3CCCCC3[NH]2)[O]C1=O)C(C)(C)C (stereo not drawn) [Compound 34] | 0.905 |  | 
